Target: HLA-A*02 (Homo sapiens, UniProt P04439, D140Y/D185E/D98H/E176V/E277Q/G131W/G231S/I119V/I121R/I166T/I218V/L300P/N151K/N90K/P208A/P217A/Q86G/Q94H/R138H/R169H)
Assay: MHC binding assay, UV-ligand exchange with beta2m ELISA, HLA-A*02
Details: binding to HLA-A*02 ranged by peptide exchange yield (UV-ligand exchange, beta2m ELISA)
Description: Candidate peptides for T cell based therapies according to the present invention were further tested for their MHC binding capacity (affinity). The individual peptide-MHC complexes were produced by UV-ligand exchange, where a UV-sensitive peptide is cleaved upon UV-irradiation, and exchanged with the peptide of interest as analyzed. Only peptide candidates that can effectively bind and stabilize the peptide-receptive MHC molecules prevent dissociation of the MHC complexes. To determine the yield of the exchange reaction, an ELISA was performed based on the detection of the light chain (ß2 m) of stabilized MHC complexes. The assay was performed as generally described in Rodenko et al. (Rodenko et al., 2006).
96 well MAXISorp plates (NUNC) were coated over night with 2 ug/ml streptavidin in PBS at room temperature, washed 4× and blocked for 1 h at 37° C. in 2% BSA containing blocking buffer. […] Peptide-MHC monomers of the UV-exchange reaction were diluted 100 fold in blocking buffer. Samples were incubated for 1 h at 37° C., washed four times, incubated with 2 ug/ml HRP conjugated anti-β2 m for 1h at 37° C., washed again and detected with TMB solution that is stopped with […]. Absorption was measured at 450 nm. Candidate peptides that show a high exchange yield (preferably higher than 50%, most preferred higher than 75%) are generally preferred for a generation and production of antibodies or fragments thereof, and/or T cell receptors or fragments thereof, as they show sufficient avidity to the MHC molecules and prevent dissociation of the MHC complexes.

Row | Substance | Peptide exchange
1 | 35 (YVLPKLYVKL; listed as Homo sapiens) [compound 35] | ++ (20%-49% = ++)
2 | 71 (GLITVDIAL; listed as Homo sapiens) [compound 71] | +++ (50%-75% = +++)
3 | 336 (GLMDGSPHFL; listed as Homo sapiens) [compound 336] | ++ (20%-49% = ++)
4 | 54 (FINPKGNWLL; listed as Homo sapiens) [compound 54] | +++ (50%-75% = +++)
5 | 14 (LLDHLSFINKI; listed as Homo sapiens) [compound 14] | ++ (20%-49% = ++)
6 | 77 (IVLSTIASV; listed as Homo sapiens) [compound 77] | +++ (50%-75% = +++)
7 | 37 (ALINDILGELVKL; listed as Homo sapiens) [compound 37] | +++ (50%-75% = +++)
8 | 1 (PLWGKVFYL; listed as Homo sapiens) [compound 1] | ++ (20%-49% = ++)
9 | 12 (GLIYEETRGV; listed as Homo sapiens) [compound 12] | ++ (20%-49% = ++)
10 | 25 (IQADDFRTL; listed as Homo sapiens) [compound 25] | ++ (20%-49% = ++)
11 | 340 (SVAKTILKR; listed as Homo sapiens) [compound 340] | ++ (20%-49% = ++)
12 | 75 (ILDNVKNLL; listed as Homo sapiens) [compound 75] | +++ (50%-75% = +++)
13 | 330 (FLWPKEVEL; listed as Homo sapiens) [compound 330] | +++ (50%-75% = +++)
14 | 92 (LLRGPPVARA; listed as Homo sapiens) [compound 92] | ++ (20%-49% = ++)
15 | 76 (ILLDESNFNHFL; listed as Homo sapiens) [compound 76] | +++ (50%-75% = +++)
16 | 61 (HLPDFVKQL; listed as Homo sapiens) [compound 61] | ++ (20%-49% = ++)
17 | 18 (YVLNEEDLQKV; listed as Homo sapiens) [compound 18] | +++ (50%-75% = +++)
18 | 65 (KLDGICWQV; listed as Homo sapiens) [compound 65] | +++ (50%-75% = +++)
19 | 87 (YLTEVFLHVV; listed as Homo sapiens) [compound 87] | +++ (50%-75% = +++)
20 | 78 (LLWGHPRVA; listed as Homo sapiens) [compound 78] | +++ (50%-75% = +++)
21 | 328 (SVDSAPAAV; listed as Homo sapiens) [compound 328] | ++ (20%-49% = ++)
22 | 326 (SLLPLVWKI; listed as Homo sapiens) [compound 326] | +++ (50%-75% = +++)
23 | 90 (GAVAEEVLSSI; listed as Homo sapiens) [compound 90] | + (<20% = +)
24 | 20 (ALDGHLYAI; listed as Homo sapiens) [compound 20] | +++ (50%-75% = +++)

System: HLA-A*24
Assay: MHC binding assay, UV-ligand exchange with beta2m ELISA, HLA-A*24
Parameters: species or system human
Details: binding to HLA-A*24 ranged by peptide exchange yield (UV-ligand exchange, beta2m ELISA)
Method in brief: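 Peptide–MHC complexes made by UV-ligand exchange of a UV-cleavable peptide. Exchange yield measured by ELISA: monomers diluted 100-fold on streptavidin-coated plates, 1 h at 37°C, detected with HRP anti-β2m (2 ug/ml) and TMB, absorbance at 450 nm.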

Row | Substance | Peptide exchange
25 | 259 (YFIKSPPSQLF; listed as Homo sapiens) [compound 259] | ++ (20%-49% = ++)
26 | 99 (QYILAVPVL; listed as Homo sapiens) [compound 99] | ++++ (>=75% = ++++)
27 | 214 (KYLMELTLI; listed as Homo sapiens) [compound 214] | +++ (50%-75% = +++)
28 | 125 (VFSRDFGLLVF; listed as Homo sapiens) [compound 125] | +++ (50%-75% = +++)
29 | 187 (AYAANVHYL; listed as Homo sapiens) [compound 187] | ++++ (>=75% = ++++)
30 | 261 (GYIKLINFI; listed as Homo sapiens) [compound 261] | ++++ (>=75% = ++++)
31 | 243 (SYLELANTL; listed as Homo sapiens) [compound 243] | +++ (50%-75% = +++)
32 | 366 (QYLELAHSL; listed as Homo sapiens) [compound 366] | +++ (50%-75% = +++)
33 | 302 (LYLPVHYGF; listed as Homo sapiens) [compound 302] | +++ (50%-75% = +++)
34 | 240 (YYFFVQEKI; listed as Homo sapiens) [compound 240] | +++ (50%-75% = +++)
35 | 232 (YYLSDSPLL; listed as Homo sapiens) [compound 232] | +++ (50%-75% = +++)
36 | 310 (IYAPTLLVF; listed as Homo sapiens) [compound 310] | +++ (50%-75% = +++)
37 | 210 (IYAGVGEFSF; listed as Homo sapiens) [compound 210] | ++++ (>=75% = ++++)
38 | 209 (AFIETPIPLF; listed as Homo sapiens) [compound 209] | ++++ (>=75% = ++++)
39 | 220 (SYSEIKDFL; listed as Homo sapiens) [compound 220] | ++++ (>=75% = ++++)
40 | 200 (VFIHHLPQF; listed as Homo sapiens) [compound 200] | +++ (50%-75% = +++)
41 | 154 (VYGVPTPHF; listed as Homo sapiens) [compound 154] | ++++ (>=75% = ++++)
42 | 128 (VYPFDWQYI; listed as Homo sapiens) [compound 128] | ++++ (>=75% = ++++)
43 | 138 (VYNAVSTSF; listed as Homo sapiens) [compound 138] | ++ (20%-49% = ++)
44 | 367 (LYQDHMQYI; listed as Homo sapiens) [compound 367] | ++ (20%-49% = ++)
45 | 347 (VYAEVNSL; listed as Homo sapiens) [compound 347] | +++ (50%-75% = +++)
46 | 202 (RYVEGIVSL; listed as Homo sapiens) [compound 202] | +++ (50%-75% = +++)
47 | 153 (VYVPFGGKSMITF; listed as Homo sapiens) [compound 153] | ++++ (>=75% = ++++)

Row | Substance | Peptide exchange
48 | 256 (VFGKSAYLF; listed as Homo sapiens) [compound 256] | +++ (50%-75% = +++)
49 | 262 (VYSSQFETI; listed as Homo sapiens) [compound 262] | ++++ (>=75% = ++++)
50 | 364 (KYLNENQLSQL; listed as Homo sapiens) [compound 364] | +++ (50%-75% = +++)
51 | 266 (KYTDWTEFL; listed as Homo sapiens) [compound 266] | +++ (50%-75% = +++)
52 | 136 (IYPEWPVVFF; listed as Homo sapiens) [compound 136] | +++ (50%-75% = +++)
53 | 185 (QYLVHVNDL; listed as Homo sapiens) [compound 185] | ++++ (>=75% = ++++)
54 | 313 (KYTHFIQSF; listed as Homo sapiens) [compound 313] | ++++ (>=75% = ++++)
55 | 287 (IYNPNLLTASKF; listed as Homo sapiens) [compound 287] | +++ (50%-75% = +++)
56 | 387 (KYTEKLEEI; listed as Homo sapiens) [compound 387] | +++ (50%-75% = +++)
57 | 121 (RYGLPAAWSTF; listed as Homo sapiens) [compound 121] | +++ (50%-75% = +++)
58 | 194 (VYQSLSNSL; listed as Homo sapiens) [compound 194] | +++ (50%-75% = +++)
59 | 257 (IFIDNSTQPLHF; listed as Homo sapiens) [compound 257] | +++ (50%-75% = +++)
60 | 268 (IFITKALQI; listed as Homo sapiens) [compound 268] | ++ (20%-49% = ++)
61 | 376 (VYTPVASRQSL; listed as Homo sapiens) [compound 376] | +++ (50%-75% = +++)
62 | 107 (KYFPYLVVI; listed as Homo sapiens) [compound 107] | +++ (50%-75% = +++)
63 | 350 (KYGNFIDKL; listed as Homo sapiens) [compound 350] | +++ (50%-75% = +++)
64 | 374 (VFLPRVTEL; listed as Homo sapiens) [compound 374] | ++ (20%-49% = ++)
65 | 215 (SYVASFFLL; listed as Homo sapiens) [compound 215] | ++ (20%-49% = ++)
66 | 245 (LYPQLFVVL; listed as Homo sapiens) [compound 245] | +++ (50%-75% = +++)
67 | 143 (KYIFQLNEI; listed as Homo sapiens) [compound 143] | +++ (50%-75% = +++)
68 | 297 (TYIDTRTVF; listed as Homo sapiens) [compound 297] | ++++ (>=75% = ++++)
69 | 357 (QFITSTNTF; listed as Homo sapiens) [compound 357] | ++++ (>=75% = ++++)

From patent US11541107B2, “Peptides and T cells for use in immunotherapeutic treatment of various cancers” (Immatics Biotechnologies GmbH, priority 2015, dated 2023)
